Experimental data: patent US20050234041A1, “Substituted 1-benzazepines and derivatives thereof” (priority 2001, published 2005)
≈ marks a conversion by molar mass, not a printed value. Read-outs that look alike come from different tables or passages of the source.

Experiments:
Helicobacter pylori = test: MIC, broth dilution method, Helicobacter pylori; type: cell-based; details: for MIC: Helicobacter pylori
Description: (§1) Antibacterial activity can be determined by several standard methods well known by those skilled in the art, including disc diffusions methods, broth dilution minimal inhibitory concentration (MIC) methods, etc., including the detailed method outlined below and as defined by the National Committee of Clinical Laboratory Standards in the United States.
(§2) MIC, Broth Dilution Method
(§3) Cultures of bacteria are initially brought up from the freezer stocks onto chocolate agar plates by streaking a loop-full, then incubated for 18 hours at 35-37° C. in a 5% CO2 incubator.
(§4) Five to 10 colonies are picked from the chocolate agar plate for subculture to Brain-Heart Infusion (BHI) broth or Mueller Hinton broth or BHI containing 4% serum and incubated as described.
(§5) Evaluate the optical density of the organisms in the wells of a 96 well microtiter plate with and without the test compound. The optical density of the organisms in the presence of an active compound will be less than the optical density of the same organism untreated. The activity of the compounds is described as either negative or the lowest concentration inhibiting growth. The results are depicted in Table III, where +/− represents the least activity and ++++ represents the greatest activity. In Table IV, the results are depicted where MIC represents the lowest concentration of antibiotic that inhibits bacterial growth.

Campylobacter jejuni = test: MIC, broth dilution method, Campylobacter jejuni; type: cell-based; details: for MIC: Campylobacter jejuni
Description: as §1, §2, §3, §4, §5

[1] = Table IV, MIC, lowest concentration that inhibits bacterial growth
[2] = Table V, read-out: MIC (μg/mL) H. pylori
[3] = Table V, read-out: MIC (μg/mL) C. jejuni
[4] = Table IV, MIC, lowest concentration that inhibits bacterial growth, read-out: Antibacterial Activity (micrograms/ml) Helicobacter pylori
[5] = Table IV, MIC, lowest concentration that inhibits bacterial growth, read-out: Antibacterial Activity (micrograms/ml) Campylobacter jejuni

SMILES | MIC (Helicobacter pylori; [2]) [µg/mL] | MIC (Campylobacter jejuni; [3]) [µg/mL] | also measured
CCN1C(=O)CCCc2cc(N3CCN(C(=O)OC(C)(C)C)CC3)c(OC)cc21 [Example 21, 7-[(4-tert-butoxycarbonylpiperazin)-1-yl]-1-ethyl-8-methoxy-2,3,4,5-tetrahydro-1H-1-benzazepine-2-one] |  |  | Antibacterial Activity (micrograms/ml) Helicobacter pylori (Helicobacter pylori; [1]): 12.5-25 micrograms/ml; Antibacterial Activity (micrograms/ml) Campylobacter jejuni (Campylobacter jejuni; [1]): >200 micrograms/ml
O=C1CCCc2ccccc2N1 [Example 187, 2,3,4,5-tetrahydro-1H-1-benzazepine-2-one] | 64 (≈ 397 µM) | > 250 | 
O=C1CCCc2cc(O)ccc2N1 [Example 189, 7-Hydroxy-2,3,4,5-tetrahydro-H-1-benzazepine-2-one] | 125 (≈ 705 µM) | > 250 | 
COc1ccc2c(c1)N(Cc1cccc(F)c1)C(=O)C(C(=O)OC(C)(C)C)CC2 (racemic) [Example 25, 3(R,S)-tert-Butoxycarbonyl-1-(3-fluorobenzyl)-8-methoxy-2,3,4,5-tetrahydro-1H-1-benzazepine-2-one] |  |  | MIC (Helicobacter pylori; [4]): 12.5 µg/mL (≈ 31.3 µM); MIC (Campylobacter jejuni; [5]): > 200 µg/mL
COc1ccc2c(c1)N(CC(N)=O)C(=O)C(C(=O)OC(C)(C)C)CC2 (racemic) [Example 201, 1-(Aminocarbonyl)methyl-3(R,S)-tert-butyloxycarbonyl-8-methoxy-2,3,4,5-tetrahydro-1H-1-benzazepine-2-one] | 60 (≈ 172 µM) | > 250 | 
CCN1C(=O)C(C(=O)OC(C)(C)C)CCc2ccc(O[Si](C)(C)C(C)(C)C)cc21 (racemic) [Example 179, 3(R,S)-tert-Butoxycarbonyl-8-tert-Butyldimethylsilyloxy-1-ethyl-2,3,4,5-tetrahydro-1H-1-benzazepine-2-one] | 16 (≈ 38.1 µM) | > 200 | 
CCOC(=O)NC(=S)Nc1cc2c(cc1O)NC(=O)C(C(=O)OC(C)(C)C)CC2 (racemic) [Example 215, 3(R,S)-tert-Butoxycarbonyl-7-[(ethoxycarbonylamino)thiocarbonyl)]amino-8-hydroxyl-2,3,4,5-tetrahydro-H-1-benzazepine-2-one] |  |  | MIC (μg/mL) H. pylori (Helicobacter pylori; Table V): 30 µg/mL (≈ 70.8 µM); MIC (μg/mL) C. jejuni (Campylobacter jejuni; Table V): >250, μg/mL
CCOc1ccc2c(c1)N(CC)C(=O)C(C(=O)OC(C)(C)C)CC2 (racemic) [Example 180, 8-Ethoxy-3(R,S)-tert-butoxycarbonyl-1-ethyl-2,3,4,5-tetrahydro-1H-1-benzazepine-2-one] | 32 (≈ 96 µM) | > 200 | 
COc1ccc2c(c1)CCCC(=O)N2 [Example 185, 7-Methoxy-2,3,4,5-tetrahydro-1H-1-benzazepine-2-one] | 125 (≈ 654 µM) | 32 (≈ 167 µM) | 
COc1ccc2c(c1)NC(=O)C(C(=O)NO)CC2 (centres unmarked) [Example 197, 3-Hydoxyaminocarbonyl-8-methoxy-2,3,4,5-tetrahydro-1H-1-benzazepine-2-one] | 125 (≈ 499 µM) | > 250 | 
CCN1C(=O)C(C(=O)OC)CCc2cc(Br)c(OC)cc21 (racemic) [Example 28, 7-bromo-1-ethyl-3(R,S)-methoxycarbonyl-8-methoxy-2,3,4,5-tetrahydro-1H-1-benzazepine-2-one] |  |  | MIC (Helicobacter pylori; [4]): 25 µg/mL (≈ 70.2 µM); MIC (Campylobacter jejuni; [5]): > 200 µg/mL
CCN1C(=O)C(CC)(C(=O)O)CCc2ccc(OC)cc21 (racemic) [Example 7, 3(R,S)-Carboxyl-1,3-diethyl-8-methoxy-2,3,4,5-tetrahydro-1H-1-benzazepine-2-one] |  |  | MIC (Helicobacter pylori; [4]): 100 µg/mL (≈ 343 µM); MIC (Campylobacter jejuni; [5]): > 200 µg/mL
COc1ccc2c(c1)N(CCN1CCOCC1)C(=O)C(C(=O)OC(C)(C)C)CC2 (racemic) [Example 213, 3(R,S)-tert-Butoxycarboxyl-8-methoxy-1-[2-(4-morpholinyl)]ethyl-2,3,4,5-tetrahydro-1H-1-benzazepine-2-one] |  |  | MIC (μg/mL) H. pylori (Helicobacter pylori; Table V): 125 µg/mL (≈ 309 µM); MIC (μg/mL) C. jejuni (Campylobacter jejuni; Table V): >250, μg/mL
CC(C)(C)OC(=O)C1CCc2ccc(O)cc2N(C(=O)OC(C)(C)C)C1=O (racemic) [Example 183, 1,3(R,S)-Di(tert-butoxycarbonyl)-8-hydroxy-2,3,4,5-tetrahydro-1H-1-benzazepine-2-one] | 64 (≈ 170 µM) | 125 (≈ 331 µM) | 
CCN1C(=O)CCCc2ccc([N+](=O)[O-])cc21 [Example 182, 8-Nitro-1-ethyl-2,3,4,5-tetrahydro-1H-1-benzazepine-2-one] | 16 (≈ 68.3 µM) | 8 (≈ 34.2 µM) | 
COc1cc2c(cc1N)CCC(C(=O)OC(C)(C)C)C(=O)N2 (racemic) [Example 199, 7-Amino-3(R,S)-tert-butoxycarbonyl-8-methoxy-2,3,4,5-tetrahydro-1H-1-benzazepine-2-one] | 125 (≈ 408 µM) | > 250 | 

SMILES | MIC (Helicobacter pylori; [2]) [µg/mL] | MIC (Campylobacter jejuni; [3]) [µg/mL] | also measured
CCN1C(=O)C(C(=O)O)CCc2cc(N3CCN(c4cc5c(cc4OC)N(CC)C(=O)C(C(=O)O)CC5)CC3)c(OC)cc21 [Example 20, 1,4-Di-[(3(R,S)-carboxyl-1-ethyl-8-methoxy-2-oxo-2,3,4,5-tetrahydro-1H-1-benzazepine)-7-yl]-piperazine] |  |  | Antibacterial Activity (micrograms/ml) Helicobacter pylori (Helicobacter pylori; [1]): 100 micrograms/ml; Antibacterial Activity (micrograms/ml) Campylobacter jejuni (Campylobacter jejuni; [1]): >200 micrograms/ml
CCN1C(=O)C(C(=O)OC(C)(C)C)CCc2cc(N3CCN(C(=O)OCc4ccccc4)CC3)c(OC)cc21 (racemic) [Example 26, 7-[(4-benzyloxycarbonyl)-piperazin-1-yl]-3(R,S)-tert-butoxycarbonyl-1-ethyl-8-methoxy-2,3,4,5-tetrahydro-1H-1-benzazepine-2-one] |  |  | Antibacterial Activity (micrograms/ml) Helicobacter pylori (Helicobacter pylori; [1]): 12.5 micrograms/ml; Antibacterial Activity (micrograms/ml) Campylobacter jejuni (Campylobacter jejuni; [1]): 125 micrograms/ml
CCOC(=O)C1(CC)CCc2ccc(OC)cc2N(CC)C1=O (racemic) [Example 6, 1,3-Diethyl-3(R,S)-ethoxycarbonyl-8-methoxy-2,3,4,5-tetrahydro-1H-1-benzazepine-2-one] |  |  | MIC (Helicobacter pylori; [4]): 12.5 µg/mL (≈ 39.1 µM); MIC (Campylobacter jejuni; [5]): 50 µg/mL (≈ 157 µM)
O=C1CCCc2ccc([N+](=O)[O-])cc2N1 [Example 181, 8-Nitro-2,3,4,5-tetrahydro-1H-1-benzazepine-2-one] | 250 (≈ 1210 µM) | 125 (≈ 606 µM) | 
CCN1C(=O)CCCc2ccc(OC)cc21 [Example 8, 1-Ethyl-8-methoxy-2,3,4,5-tetrahydro-1H-1-benzazepine-2-one] |  |  | MIC (Helicobacter pylori; [4]): > 200 µg/mL; MIC (Campylobacter jejuni; [5]): 50 µg/mL (≈ 228 µM)
CCN1C(=O)C(Br)(C(=O)OC)CCc2cc(Br)c(OC)cc21 (racemic) [Example 27, 3,7-dibromo-1-ethyl-3(R,S)-methoxycarbonyl-8-methoxy-2,3,4,5-tetrahydro-1H-benzazepine-2-one] |  |  | MIC (Helicobacter pylori; [4]): 12.5 µg/mL (≈ 28.7 µM); MIC (Campylobacter jejuni; [5]): > 200 µg/mL
COc1ccc2c(c1)N(Cc1cccc(F)c1)C(=O)C(C(=O)O)CC2 (racemic) [Example 184, 3(R,S)-carboxyl-1-(3-fluorobenzyl)-8-methoxy-2,3,4,5-tetrahydro-1H-1-benzazepine-2-one] | 125 (≈ 364 µM) | > 250 | 
CCN1C(=O)CCCc2ccc(N)cc21 [Example 190, 8-Amino-1-ethyl-2,3,4,5-tetrahydro-1H-1-benzazepine-2-one] | 64 (≈ 313 µM) | 250 (≈ 1220 µM) | 
COc1cc2c(cc1[N+](=O)[O-])CCC(C(=O)OC(C)(C)C)C(=O)N2 (racemic) [Example 198, 3(R,S)-tert-Butoxycarbonyl-8-methoxy-7-nitro-2,3,4,5-tetrahydro-1H-1-benzazepine-2-one] | 4 (≈ 11.9 µM) | 60 (≈ 178 µM) | 
COc1ccc2c(c1)N(CCOC1CCCCO1)C(=O)C(C(=O)OC(C)(C)C)CC2 (racemic) [Example 221, 3(R,S)-tert-Butoxycarbonyl-8-methoxy-1-[2-(tetrahydro-2H-pyran-2-yl)oxyethyl]-2,3,4,5-tetrahydro-1H-1-benzazepine-2-one] | 15 (≈ 35.8 µM) | > 250 | 
COc1cccc2c1CCCC(=O)N2 [Example 186, 6-Methoxy-2,3,4,5-tetrahydro-1 H-1-benzazepine-2-one] | 64 (≈ 335 µM) | > 250 | 
COc1ccc2c(c1)N(CCC1OCCO1)C(=O)C(C(=O)OC(C)(C)C)CC2 (racemic) [Example 223, 3(R,S)-tert-Butoxycarbonyl-8-methoxy-1-[2-(1,3-dioxolan-2-yl)ethyl]-2,3,4,5-tetrahydro-1H-1-benzazepine-2-one] | 60 (≈ 153 µM) | > 250 | 
COc1cc2c(cc1[N+](=O)[O-])CCC(C(=O)OC(C)(C)C)C(=O)N2CCOC1CCCCO1 [Example 224, 3(R,S)-tert-Butoxycarbonyl-8-methoxy-7-nitro-1-[2-(tetrahydro-2H-pyran-2-yloxy)]ethyl-2,3,4,5-tetrahydro-1H-1-benzazepine-2-one] |  |  | MIC (μg/mL) H. pylori (Helicobacter pylori; Table V): 60 µg/mL (≈ 129 µM); MIC (μg/mL) C. jejuni (Campylobacter jejuni; Table V): >250, μg/mL
COc1ccc2c(c1)N(CC(=O)OC(C)(C)C)C(=O)C(C(=O)OC(C)(C)C)CC2 (racemic) [Example 200, 1-(tert-Butoxycarbonyl)methyl-3(R,S)-tert-butoxycarbonyl-8-methoxy-2,3,4,5-tetrahydro-1H-1-benzazepine-2-one] | 15 (≈ 37 µM) | > 250 | 
COc1ccc2c(c1)N(CCO)C(=O)C(C(=O)OC(C)(C)C)CC2 (racemic) [Example 222, 3(R,S)-tert-Butoxycarbonyl-1-(2-hydroxy)ethyl-8-methoxy-2,3,4,5-tetrahydro-1H-1-benzazepine-2-one] |  |  | MIC (μg/mL) H. pylori (Helicobacter pylori; Table V): 60 µg/mL (≈ 179 µM); MIC (μg/mL) C. jejuni (Campylobacter jejuni; Table V): >250, μg/mL
